Source: patent US20070259329A1, “Anergy-inducing cellular composition” (BioVerde. Inc., priority 2006, published 2007)
Marks after values point to notes of the source that are not given here.

Tests used:
[1] = target: T1, CD4 (Mus musculus, UniProt P06332); assay: Lymphocyte marker analysis by flow cytometry, CD4 epitope; type: cell-based, murine (C57BI/6 splenocytes); details: for percent expression of cell surface molecule CD4: epitope-specific antibody, average of triplicate; for average percent suppression in epitope detection, CD4: relative to untreated control (0 ppm)
T1 construct: endogenous in cells; host or cells: murine splenocytes (C57Bl/6)
T1 sequence (P06332 27-457): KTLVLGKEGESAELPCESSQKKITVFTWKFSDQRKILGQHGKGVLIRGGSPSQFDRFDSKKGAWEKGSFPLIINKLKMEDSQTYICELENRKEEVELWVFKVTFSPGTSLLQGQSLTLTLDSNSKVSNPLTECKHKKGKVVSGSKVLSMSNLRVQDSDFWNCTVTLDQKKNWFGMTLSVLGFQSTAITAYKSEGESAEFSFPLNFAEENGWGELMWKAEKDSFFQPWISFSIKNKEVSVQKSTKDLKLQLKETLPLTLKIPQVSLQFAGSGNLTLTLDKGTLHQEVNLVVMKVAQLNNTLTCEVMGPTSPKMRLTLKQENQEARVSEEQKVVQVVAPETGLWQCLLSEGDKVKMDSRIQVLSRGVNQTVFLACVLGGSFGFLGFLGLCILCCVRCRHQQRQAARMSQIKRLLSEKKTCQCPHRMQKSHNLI
Experimental: (§1) To evaluate the action of EGCG in rendering cells to become anergy-inducing, murine splenocytes were used as a model system. Splenocytes were collected from BALB/c (H2 K^b) and C57BI/6 (H2 K^d) female mice of 8 to 13 weeks of age in HBSS (BioWhittaker) with 1% FCS. Cells were washed with HBSS (1% FCS) and treated with the media solution which contains RPMI 1640 (Sigma-Aldrich), 10 mM HEPES (Dojindo), and various concentrations of EGCG (98% purity, Roche) described in the examples.
(§2) Flow cytometric analyses of surface epitopes for the control and EGCG-treated splenocytes were performed using a series of fluorescence-labeled monoclonal anti-mouse CD and MHC and corresponding isotype control antibodies (eBioscience: CD2, CD36, CD4, CD11a, CD25, CD 28, CD 49d and CD80; Pharmingen: TCRαβ and MHC II). Murine splenocytes (C57BI/6) were treated with red blood cell lysis buffer (eBioscience) for 5 min prior to EGCG treatments. Immediately following EGCG-treatments, the splenocytes were washed with RPMI 1640 (10% FCS) and a staining buffer (eBioscience) at 4 degree C. Each splenocyte sample was reconstituted as a 50 μl aliquot in the same staining buffer and subject to antibody labeling. After washing twice the samples with the staining buffer, a minimum of 10,000 events per sample was collected on a Becton Dickinson FACScan flow cytometer.

[2] = target: T2, CD28 (Mus musculus, UniProt P31041); assay: Lymphocyte marker analysis by flow cytometry, CD28 epitope; type: cell-based, murine (C57BI/6 splenocytes); details: for percent expression of cell surface molecule CD28: epitope-specific antibody, average of triplicate; for average percent suppression in epitope detection, CD28: relative to untreated control (0 ppm)
T2 construct: endogenous in cells; host or cells: murine splenocytes (C57Bl/6)
T2 sequence (P31041 20-218): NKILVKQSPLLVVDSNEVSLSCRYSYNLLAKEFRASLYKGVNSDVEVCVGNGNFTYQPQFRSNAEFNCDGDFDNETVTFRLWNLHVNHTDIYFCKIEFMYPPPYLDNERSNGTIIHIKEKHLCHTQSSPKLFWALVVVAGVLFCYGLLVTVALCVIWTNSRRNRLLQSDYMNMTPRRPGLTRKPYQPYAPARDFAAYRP
Experimental: as §1, §2

[3] = tested on: BALB/c (stimulator cells) and C57BI/6 (responder cells) splenocytes; assay: Two-way mixed lymphocyte reaction (MLR); type: cell-based, murine; details: stimulator or responder cells treated with EGCG, 72 hours culture, FIG. 4
From the text: In a two-way MLR (FIG. 4), both stimulator and responder populations were left capable of proliferating. […] (penicillin 100 U/ml and streptomycin 100 ppm, BioWhittaker) to a final concentration of 5.0×10^6 cells/ml. […] Cell proliferation was estimated by counting with trypan-blue exclusion a small sample of the cells from each MLR well.

[4] = tested on: IL-2 production; assay: Cytokine ELISA of one-way MLR supernatants, IL-2; type: cell-based, murine; details: versus untreated, FIG. 7
Experimental: (§3) In a one-way MLR (FIG. 3), a stimulator splenocyte population (BALB/c) was treated with 30 ppm mitomycin C (MP Biomedicals) in RPMI 1640 (10% FCS) at 37 degree C. for 30 min. to arrest its proliferation before EGCG treatments. The splenocytes were then resuspended with the media solution (RPMI 1640 and 10 mM HEPES) containing 0, 100, and 200 ppm EGCG and incubated at 4-8 degree C. for 1 hour and twice washed with RPMI 1640 (10% FCS) before used for MLR experiments. In a two-way MLR (FIG. 4), both stimulator and responder populations were left capable of proliferating. Each cell population was resuspended in RPMI 1640 (10% FCS) and antibiotics: (penicillin 100 U/ml and streptomycin 100 ppm, BioWhittaker) to a final concentration of 5.0×10^6 cells/ml. The stimulator and responder cells were mixed with a 1:1 ratio (120 μl each) and incubated in triplicate in 96-well plates for 72 hours at […] and 5% CO2. Cell proliferation was estimated by counting with trypan-blue exclusion a small sample of the cells from each MLR well.
(§4) Supernatants from the one-way MLR wells (Example II) were assayed for IL-2 and INF-γ production using cytokine quantification ELISA (e-Bioscience).

[5] = tested on: INF-γ production; assay: Cytokine ELISA of one-way MLR supernatants, INF-γ; type: cell-based, murine; details: versus untreated, FIG. 8
Experimental: as §3, §4

[6] = tested on: pancreatic β-cell; details: Han (2003); cited from earlier work

## (−)-epigallocatechin-3-o-gallate [EGCG]
[1]; EGCg 100 ppm
  percent expression of cell surface molecule CD4: 21.1%
  average percent suppression in epitope detection, CD4: (12.1)* percent
[1]; EGCg 200 ppm
  percent expression of cell surface molecule CD4: 20.8%
  average percent suppression in epitope detection, CD4: (13.3)* percent
[2]; EGCG treatment, summary of TABLE 1
  binding of the CD28-specific monoclonal antibody, of the control: about 50%
[2]; EGCg 100 ppm
  percent expression of cell surface molecule CD28: 8.7%
  average percent suppression in epitope detection, CD28: (50.6)** percent
[2]; EGCg 200 ppm
  percent expression of cell surface molecule CD28: 9.4%
  average percent suppression in epitope detection, CD28: (46.6)** percent
[3]
  proliferation of splenocytes: significantly decreased
[4]
  production of IL-2: significantly decreased down to near or below the background levels
[5]
  production of INF-γ: significantly decreased down to near or below the background levels
[6]
  cytokine-induced pancreatic β-cell damage: suppression
